From patent US20260373266A1, “PROTEIN DEGRADERS AND USES THEREOF” (KYMERA THERAPEUTICS, INC., priority 2022, published 2026) come the findings set out here.

Where only a bound is given, the exact number is not on record here.

The target in the test is T1, DCAF1 WD40 domain (residues 1077-1390) (Homo sapiens, UniProt Q9Y4B6).
T1 construct: DCAF1 WD40 domain (residues 1077-1390)
T1 sequence (Q9Y4B6 1077-1390): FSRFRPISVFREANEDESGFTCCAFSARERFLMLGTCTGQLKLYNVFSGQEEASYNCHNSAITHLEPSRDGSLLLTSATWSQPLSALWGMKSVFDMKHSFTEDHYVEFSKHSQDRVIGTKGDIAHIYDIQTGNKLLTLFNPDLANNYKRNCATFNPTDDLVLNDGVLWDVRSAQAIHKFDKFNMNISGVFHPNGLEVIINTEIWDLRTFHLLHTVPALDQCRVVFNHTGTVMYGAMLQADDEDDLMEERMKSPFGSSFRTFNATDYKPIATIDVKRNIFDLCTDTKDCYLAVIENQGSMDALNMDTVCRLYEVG
The test is described as follows: DCAF1 binding assay by SPR (Biacore 8K+), DCAF1-3 KD. The conditions noted are these: 25 °C, read-out: DCAF1-3 SPR (KD). (Surface plasmon resonance follows binding to a sensor surface in real time, without labels.)
As a reminder, the Kd is a measure of binding affinity in units of concentration. Regarding `NC(=O)C[C@H](NC(=O)c1cn[nH]c1-c1ccccc1F)c1cnsc1` [I-187], the Kd was greater than 200 µM.

For the compound `Cc1c(F)ccc(F)c1-c1c(C(=O)N[C@@H](CC(N)=O)c2cccc(Cl)c2)c[nH]c1C#N` [I-798], the Kd is less than 10 µM. As for `CCN1CCN(c2ccnc(N[C@@H]3CCCN(c4cccc(F)c4)C3)n2)CC1` [I-316], the Kd is greater than 200 µM. To `O=c1cc(N2CCC[C@@H](Nc3cc(N4CCCCC4)ccn3)C2)cc[nH]1` [I-945] belongs 10 to 100 µM; to `COc1ccc(N2CCC[C@@H](Nc3cncc(N4CCOCC4)c3)C2)cc1` [I-551], greater than 200 µM. For `c1ccc([C@H]2CCC[C@@H](Nc3cc(N4CCCCC4)ccn3)C2)cc1` [I-754] the value was 10 to 100 µM; for `CNC1CN(C(=O)C[C@H](NC(=O)c2cn[nH]c2-c2c(F)ccc(F)c2C)c2cccc(Cl)c2)C1` [I-880], less than 10 µM. Consider `COc1ccc(F)cc1N1CCC[C@@H]2[C@H]1CCN2c1cc(N2CCCCC2)ccn1` [I-796], for which the Kd fell in the range of 10 to 100 µM. To `CS(=O)(=O)CCc1ccc(F)c(-c2[nH]ncc2C(=O)N[C@@H](CC(N)=O)c2cccc(Cl)c2)c1` [I-247] belongs greater than 200 µM; to `N#Cc1ccc([C@H](CC(N)=O)NC(=O)c2c[nH]nc2-c2ccccc2F)cc1` [I-118], less than 10 µM; to `CCCN1CCN(c2ccnc(NC3CCCN(c4cccc(F)c4)C3)n2)CC1` (stereo not shown) [I-25], greater than 200 µM. To `Fc1cccc(N2CCC[C@@H](Nc3cc(N4CCNCC4)ncn3)C2)c1` [I-373] belongs greater than 200 µM; to `C=CC(=O)N1CC(c2n[nH]cc2C(=O)N[C@@H](CC(N)=O)c2cccc(Cl)c2)C1` [I-455], greater than 200 µM.

For `C=CC(=O)N[C@H]1CC[C@H](c2n[nH]cc2C(=O)N[C@@H](CC(N)=O)c2cccc(Cl)c2)CC1` [I-482], the dissociation constant (Kd) is greater than 200 µM. For `O=C1Cc2cc(N3CCC[C@@H](Nc4cc(N5CCOCC5)ccn4)C3)ncc2N1` [I-425] the value was greater than 200 µM; for `OCc1cnc2ccc(N3CCC[C@@H](Nc4cc(N5CCOCC5)ccn4)C3)nn12` [I-696], 10 to 100 µM; for `Fc1cccc(N2CCCC(C3(c4cc(N5CCOCC5)ccn4)CC3(F)F)C2)c1` (stereo not shown) [I-261], greater than 200 µM. For `COc1ccc(-c2[nH]ncc2C(=O)NC(C)C(=O)Nc2ccccc2)cc1` (stereo not shown) [I-838] the value was greater than 200 µM; for `c1cncc(N2CCC[C@@H](Nc3cc(N4CCOCC4)ncn3)C2)c1` [I-12], greater than 200 µM; for `C=CC(=O)N1CCC[C@H](N(C)c2ccnc(N[C@@H]3CCCN(c4cccc(F)c4)C3)c2)C1` [I-481], greater than 200 µM. To `NC(=O)CC(NC(=O)c1cn[nH]c1-c1c(F)cc(Cl)cc1F)c1ccc(F)c(Cl)c1` (stereo not shown) [I-1049] belongs less than 10 µM; to `Cc1cccc(F)c1-c1[nH]ncc1C(=O)N[C@H](CC(N)=O)c1cc(Cl)cc(Cl)c1` [I-735], 100 to 200 µM; to `CCn1cc(C(=O)N[C@@H](CC(N)=O)c2cccc(Cl)c2)c(-c2c(F)ccc(F)c2C)c1C#N` [I-974], less than 10 µM. As to `Cc1ncc(N[C@@H]2CCCN(c3cccc(F)c3)C2)cc1N1CCOCC1` [I-545], the Kd was greater than 200 µM. Take `NC(=O)C[C@H](NC(=O)c1cn[nH]c1C1CCOCC1)c1cccc(Cl)c1` [I-344]: the Kd is less than 10 µM. To `Cc1c(F)ccc(F)c1-c1c(C(=O)N[C@@H](CC(N)=O)c2cccc(Cl)c2)cn(C)c1C(=O)c1ccc(OCCOCCOCCOCCOCCOCCN)cc1` [I-1018] belongs less than 10 µM; to `C=CC(=O)N1CCC[C@@H](Nc2cc(N3CCOCC3)ccn2)C1` [I-449], greater than 200 µM. As for `COc1cc(N2CCC[C@@H](Nc3cc(N4CCOCC4)ccn3)C2)cnc1CO` [I-854], the Kd was 10 to 100 µM.

Consider `Cc1ccc(CCCOCCOCCOCCOCCOCCN)c(F)c1-c1c(C(=O)N[C@@H](CC(N)=O)c2cccc(Cl)c2)c[nH]c1C#N` [I-978], for which the Kd is less than 10 µM. For `COC(=O)Cc1ccnc(N2CCC[C@@H](Nc3cc(N4CCOCC4)ccn3)C2)c1` [I-429], the Kd is 10 to 100 µM.

With `NCc1cccc(N2CCC[C@@H](Nc3cc(N4CCOCC4)ccn3)C2)c1` [I-866], the Kd is greater than 200 µM.

As for `NC(=O)C[C@H](NC(=O)c1c[nH]nc1-c1ccc2[nH]cnc2c1)c1cccc(Cl)c1` [I-356], the Kd lay within 10 to 100 µM.

On to `NC(=O)C[C@H](NC(=O)c1cnn(C(=O)c2ccncn2)c1-c1ccccc1F)c1cccc(Cl)c1` [I-174], for which the equilibrium dissociation constant (Kd) is greater than 200 µM. To `CN1CCN(c2ccc(N3CCC[C@@H](Nc4cc(N5CCOCC5)ccn4)C3)nc2)CC1` [I-686] belongs greater than 200 µM; to `NCCNC(=O)c1ccc(N2CCCCC2)cc1N[C@@H]1CCCN(c2cccc(F)c2)C1` [I-991], 10 to 100 µM. On to `O=S(=O)(c1cc(N2CCOCC2)ccn1)C1CCCN(c2cccc(F)c2)C1` (stereo not shown) [I-264], for which the Kd is greater than 200 µM. To `NCCOCCOCCOCCOCCOCCC1CCN(c2ccnc(N3CC[C@@H]4[C@H]3CCCN4c3cccc(F)c3)c2)CC1` [I-651] belongs less than 10 µM. For the compound `C=CC(=O)NC1CC2(CCN(c3ccnc(N[C@@H]4CCCN(c5cccc(F)c5)C4)c3)CC2)C1` [I-652], the Kd was less than 10 µM. For `c1ccc(Oc2cncc(N3CCC[C@@H](Nc4cc(N5CCOCC5)ccn4)C3)c2)cc1` [I-436] the value was 10 to 100 µM; for `O[C@@H](c1cccc(N2CCC[C@@H](Nc3cc(N4CCOCC4)ccn3)C2)c1)C(F)(F)F` [I-772], 10 to 100 µM. To `COCCN1CCN(c2ccnc(N[C@@H]3CCCN(c4cccc(F)c4)C3)c2)CC1` [I-61] belongs 10 to 100 µM. To `C[C@@]1(Nc2cc(N3CCOCC3)ncn2)CCCN(c2cccc(F)c2)C1` [I-176] belongs greater than 200 µM.

In the case of `CS(=O)(=O)N(c1cc(N2CCOCC2)ccn1)[C@@H]1CCCN(c2cccc(F)c2)C1` [I-304], the Kd was greater than 200 µM. In the case of `c1cc(N2CCOCC2)cc(N[C@@H]2CCCN(c3ccc4c(c3)CCC4)C2)n1` [I-508], the Kd fell in the range of 100 to 200 µM. For `Oc1ccc(N2CCC[C@@H](Nc3cc(N4CCOCC4)ncn3)C2)cc1` [I-14] the value was 100 to 200 µM; for `c1cc2ccc(N3CCC[C@@H](Nc4nccc(N5CCOCC5)n4)C3)cc2cn1` [I-57], 10 to 100 µM; for `c1ccc2c(N3CCC[C@@H](Nc4cc(N5CCOCC5)ncn4)C3)nccc2c1` [I-390], greater than 200 µM. For `Cc1cccc(F)c1-c1c(C(=O)N[C@@H](CC(N)=O)c2cccc(Cl)c2)c[nH]c1C(=O)c1ccc(N2CCCCC2)cc1` [I-801] the value was less than 10 µM; for `CC(=O)n1ncc(C(=O)N[C@@H](CC(N)=O)c2cccc(Cl)c2)c1-c1ccccc1F` [I-175], greater than 200 µM; for `OCCC[C@H]1C[C@@H]2[C@H](CCCN2c2cccc(F)c2)N1c1cc(N2CCCCC2)ccn1` [I-826], 10 to 100 µM. For `Fc1cccc(N2CCC[C@@H](N(c3ccccc3)c3cc(N4CCOCC4)ccn3)C2)c1` [I-273] the value was greater than 200 µM; for `O=c1[nH]cc(C2=CCOCC2)cc1N[C@@H]1CCCN(c2cccc(F)c2)C1` [I-647], 10 to 100 µM. Consider `NC(=O)C[C@H](N/C(=N\O)c1cn[nH]c1-c1ccccc1F)c1cccc(Cl)c1` [I-162], for which the Kd is greater than 200 µM.

For `Fc1ccc(N2CCC[C@@H](Nc3cc(N4CCOCC4)ccn3)C2)cc1F` [I-74], the Kd lay in the range of 10 to 100 µM.

With `Cc1cc(CCCOCCOCCOCCOCCOCCNC(=O)C[C@@H]2N=C(c3ccc(Cl)cc3)c3c(sc(C)c3C)-n3c(C)nnc32)cc(F)c1-c1c(C(=O)N[C@@H](CC(N)=O)c2cccc(Cl)c2)c[nH]c1C#N` [I-1051], the Kd was less than 10 µM. Turning to `C=CC(=O)N1CC2(CCN(c3ccnc(N[C@@H]4CCCN(c5cccc(F)c5)C4)c3)CC2)C1` [I-465], the Kd is greater than 200 µM. For `COCCc1[nH]cc(C(=O)N[C@@H](CC(N)=O)c2cccc(Cl)c2)c1-c1ccccc1F` [I-362] the value was greater than 200 µM. On to `O=C(Nc1ccccc1)NC1CCCN(C(=O)N2CCC=C(F)C2)C1` (stereo not shown) [I-85], for which the Kd was greater than 200 µM. For `NC(=O)C[C@H](NC(=O)c1c[nH]nc1-c1cccc2ncnn12)c1cccc(Cl)c1` [I-237], the dissociation constant (Kd) is greater than 200 µM.

As for `OCCC[C@H]1C[C@H]2[C@@H](CCCN2c2cccc(F)c2)N1c1cc(N2CCCCC2)ccn1` [I-834], the Kd fell in the range of 10 to 100 µM.

For `Cc1nn(-c2ccccc2)c(C)c1N1CCC[C@@H](Nc2cc(N3CCOCC3)ccn2)C1` [I-418], the Kd was greater than 200 µM. In the case of `Oc1cnc(N2CCOCC2)cc1N[C@@H]1CCCN(c2cccc(F)c2)C1` [I-382], the Kd was greater than 200 µM. For `C=CC(=O)NCC1CCN(c2ccnc(N3CC[C@@H]4[C@H]3CCCN4c3cccc(F)c3)c2)CC1` [I-665] the value was 10 to 100 µM. For `NC(=O)C[C@H](NC(=O)C1=C(c2c(F)cccc2F)CN(Cc2ccccc2)C1)c1cccc(Cl)c1` [I-587] the value was 10 to 100 µM. For `Cc1n[nH]cc1C(=O)N[C@@H](CC(N)=O)c1cccc(Cl)c1` [I-107] the value was greater than 200 µM. Regarding `Fc1cccc([C@@H]2CCC[C@@H](Nc3cc(N4CCOCC4)ccn3)C2)c1` [I-184], the Kd is greater than 200 µM.

With `CN1C[C@H](Nc2cc(N3CCOCC3)ccn2)CCC1CC(=O)Nc1cccc(Cl)c1` (stereo partly shown) [I-145], the dissociation constant (Kd) was greater than 200 µM. To `NC(=O)C[C@H](NC(=O)c1cn[nH]c1N1CCCCC1)c1cccc(Cl)c1` [I-159] belongs greater than 200 µM; to `OC[C@@]1(Nc2cc(N3CCOCC3)ccn2)CCCN(c2cccc(F)c2)C1` [I-276], greater than 200 µM.

Consider `c1ccc(-c2nc3cccc(N4CCC[C@@H](Nc5cc(N6CCOCC6)ccn5)C4)c3o2)cc1` [I-685], for which the Kd is greater than 200 µM.

On to `Cc1ccc(C(=O)c2[nH]cc(C(=O)N[C@@H](CC(N)=O)c3cccc(Cl)c3)c2-c2c(C)cccc2F)cc1` [I-625], for which the Kd was less than 10 µM. Regarding `NC(=O)C[C@H](NC(=O)c1cc(=O)[nH]cc1-c1ccccc1F)c1cccc(Cl)c1` [I-215], the Kd was greater than 200 µM. For `Oc1ccc(N2CCC[C@H]3[C@@H]2CCN3c2cc(N3CC4CC(C4)C3)ccn2)cc1` [I-718] the value was less than 10 µM.

For `O=c1cc(N2CCOCC2)cc(N[C@@H]2CCCN(c3cccc(F)c3)C2)[nH]1` [I-303], the Kd is greater than 200 µM. As to `COC(=O)c1ccc(F)c(-c2n[nH]cc2C(=O)N[C@@H](CC(N)=O)c2cccc(Cl)c2)c1` [I-270], the Kd is greater than 200 µM. Regarding `Fc1cccc(N2CCC[C@@H](Nc3cc(C4CCOCC4)[nH]n3)C2)c1` [I-608], the Kd is greater than 200 µM.
